Measurements taken from patent US20030229082A1, “Inhibition of RNA function” (The Regents of the University of California, priority 2002, published 2003).
Where two headings read alike, the source gives them in different places.

What was measured:
[1] = system: Ribosomal A-site RNA; assay: Saturation transfer difference (STD) NMR binding experiment; details: for STD signals @ 0.4-0.6 mM drug: Ribosomal A-site RNA
[2] = system: HIV-1 TAR RNA; assay: as above
[3] = system: Polio virus loop B RNA; format: binding
[4] = system: DLS SL1 CA-loop RNA (dimer linkage site stem-loop 1); assay: Saturation transfer difference (STD) NMR binding experiment; design: species or system HIV-1
[5] = system: CVB3 loop D RNA; assay: as above; design: species or system coxsackievirus B3
[6] = system: Ribosomal A-site RNA; assay: NMR line broadening of ligand signals; format: binding
[7] = system: HIV-1 TAR RNA; assay: NMR line broadening of ligand signals; format: binding
[8] = system: Polio virus loop B RNA; format: binding; remark: listed apart in the source
[9] = system: DLS SL1 CA-loop RNA (dimer linkage site stem-loop 1); assay: NMR line broadening of ligand signals; format: binding, HIV-1
[10] = system: CVB3 loop D RNA; assay: NMR line broadening of ligand signals; format: binding, coxsackievirus B3
[11] = system: Ribosomal A-site RNA; assay: TOCSY/NOESY NMR chemical shift mapping; format: binding
[12] = system: HIV-1 TAR RNA; assay: TOCSY/NOESY NMR, structure of the acetylpromazine-TAR complex; format: binding
Procedure: Five different samples of the 31-nucleotide TAR were prepared: unlabeled, uniformly ^13C,^15N-labeled, type-specifically ^13C,^15N-labeled at G, A or C residues, respectively. All samples were prepared by in vitro transcription using T7 RNA polymerase and a synthetic DNA template and purified as described in Du, et al., Biochemistry 35, 4187 (1996). Acetylpromazine was purchased from Research Diagnostics Inc. Final sample conditions were 1-2 mM RNA in 10 mM sodium phosphate buffer (pH 6.5), 20 mM sodium chloride. Acetylpromazine was added in about two-fold excess over RNA.
The solution structure of the acetylpromazine-TAR complex was determined using a protocol very similar to that previously described by Schmitz, U., et al, (1999) Structure of the phylogenetically most conserved domain of SRP RNA, RNA 5, 1419-1429.
All NMR experiments were performed on Varian Inova 600 MHz spectrometers. Spectra were processed with NMRpipe and analyzed with SPARKY. Homonuclear 2D NOESY spectra in H2O were collected at 10° C. using the SSNOESY pulse sequence.
Due to the large number of intermolecular NOEs, 51, between acetylpromazine and TAR, binding of acetylpromazine to the 5′ bulge is very well defined.
The […] of acetylpromazine inserts between base pairs G26-C39 and A22-U40, preventing continuous stacking of the lower and upper stems as observed in structures induced by argininamide or Tat-peptide. However, another set of base-stacking interactions is created. U23 continues stacking on A22 in the fashion of an A-helix. This is evident by the NOEs from U23 H6 to A22 H2′ and H3′, and from U23 H1′ to A22 H2. Benzene ring II of acetylpromazine is stacked on U40. Stacking of U23 on A22 and benzene ring II on U40 arranges the U23 base and benzene ring II such that they look like an extra base pair continuing helical stacking on the A22-U40 base pair. This “pseudo base-pair” may contribute to the creation of a deeper minor groove (compared to the standard A-helix) to accommodate the aliphatic moiety of acetylpromazine. […]

[13] = system: Polio virus loop B RNA; format: binding; details: first part of cell TOCSY/NOESY
[14] = system: DLS SL1 CA-loop RNA (dimer linkage site stem-loop 1); assay: TOCSY/NOESY NMR chemical shift mapping; format: binding, HIV-1
[15] = system: Tat-TAR interaction (TAR with hybrid CycT1-Tat protein); assay: Electrophoretic mobility shift assay (EMSA, gel shift); format: binding, HIV-1; details: for Gel Shift Assay: HIV-1 TAR; for prevention of the binding between Tat and TAR (EMSA): concentrations between 0.1 and 1 μM, hybrid CycT1-Tat protein and TAR each at 0.1 μM; for binding to the TAR region: in vitro
Excerpt: RNA Binding Assays In vitro (Electrophoretic Mobility Shift Assay; EMSA)
EMSA is an effective method for determining whether TAR forms a complex with Tat and human cyclin T1. n the presence of TAR, containing the 5′ bulge and central loop, and these proteins, a lower mobility complex was observed on polyacrylamide gels. The lack of higher order complex formation signifies that a compound can block this RNA-protein interaction. […] These phenothiazines are used clinically as antipsychotic, sedative and antiemetic agents.

[16] = target: A-site RNA; assay: STD NMR competition experiment with paromomycin; format: binding; details: calculated from IC50 of the STD competition with paromomycin by Cheng and Prusoff correction; read-out: KD for the interaction with A-site RNA
[17] = system: RNA targets (ribosomal A-site, polio virus, DLS SL1, CVB3); format: binding; details: specific tertiary RNA motifs, loops and bulges
[18] = target: A-site RNA; details: value stated for the competitor; read-out: KD of the high affinity drug (competitor) for A-site RNA; cited from earlier work
[19] = system: HeLa cells; details: human, 3 days
[20] = system: Tat transactivation via TAR; assay: Chloramphenicol acetyl transferase (CAT) assay in HeLa cells, HIV-1 LTR and Tat; details: concentrations between 5 and 20 μM, dose-dependent

SMILES	STD signals @ 0.4-0.6 mM drug [1]	STD signals @ 0.4-0.6 mM drug [2]	Line broadening [6]	Line broadening [7]	Gel Shift Assay [15]	prevention of the binding between Tat and TAR (EMSA) [15]	binding to the TAR region [15]	further results
CC(=O)c1ccc2c(c1)N(CCCN(C)C)c1ccccc1S2 [(1), 10-[3-(dimethylamino)-propyl)phenothiazin-2-yl methyl ketone]	yes	yes	yes	yes	positive	prevent completely	bind	STD signals @ 0.4-0.6 mM drug [3]: yes; STD signals @ 0.4-0.6 mM drug [4]: yes; STD signals @ 0.4-0.6 mM drug [5]: yes; Line broadening [8]: yes; Line broadening [9]: yes; Line broadening [10]: yes; NOESY data [11]: yes/yes; TOCSY data [11]: yes/yes; binding site on TAR in solution (NMR-derived structural model) ([12]; 5′ bulge): binds to the 5′ bulge of TAR; TOCSY data ([12]; first part of cell TOCSY/NOESY): yes/yes; NOESY data ([12]; second part of cell TOCSY/NOESY): yes/yes; TOCSY data [13]: yes/no data; TOCSY data [14]: yes/no data; inhibition of the interaction of TAR and Tat ([15]; compound at 100 nM, TAR and Tat both at 100 nM): completely inhibited; Kd [16]: ~10 µM; binding to RNA motifs by chemical shift mapping (TOCSY) [17]: binds to specific tertiary RNA motifs such as loops and bulges
CN(C)CCCN1c2ccccc2Sc2ccccc21 [(2)]	yes	–	yes	–	positive	–	–	–
CN(C)CCCN1c2ccccc2Sc2ccccc21 [(3)]	no	–	yes	–	negative	–	–	–
CN(C)CCCN1c2ccccc2Sc2ccccc21 [(4)]	yes	–	yes	–	positive	–	–	–
CN(C)CCCN1c2ccccc2Sc2ccccc21 [(5)]	yes	–	yes	–	negative	–	–	–
CN(C)CCCN1c2ccccc2Sc2ccccc21 [(6)]	no	–	little	yes	positive	–	–	–
OCCNCCCN1c2ccccc2Sc2ccc(Cl)cc21 [(7)]	–	yes	–	yes	–	–	–	–
CCCCNCCCN1c2ccccc2Sc2ccc(Cl)cc21 [(8)]	–	yes	–	yes	–	–	–	–
Clc1ccc2c(c1)N(CCCN1CCCCC1)c1ccccc1S2 [(9)]	–	yes	–	little	–	–	–	–
Clc1ccc2c(c1)N(CCCNCc1ccccc1)c1ccccc1S2 [(10)]	–	yes	–	little	–	–	–	–
Clc1ccc2c(c1)N(CCCn1ccnc1)c1ccccc1S2 [(11)]	–	yes	–	–	–	–	–	–
CN(C)CCCN1c2ccccc2Sc2ccc(Cl)cc21 [chlorpromazine, 2-chloro-10-(dimethylaminopropyl)phenothiazine]	–	–	–	–	–	prevent completely	bind	–
NC[C@@H]1O[C@H](O[C@H]2[C@@H](O)[C@H](O[C@@H]3[C@@H](O)[C@H](N)C[C@H](N)[C@H]3O[C@H]3O[C@H](CO)[C@@H](O)[C@H](O)[C@H]3N)O[C@@H]2CO)[C@H](N)[C@@H](O)[C@@H]1O [paromomycin]	–	–	–	–	–	–	–	Kd [18]: 0.2 µM
CN1CCN(CCCN2c3ccccc3Sc3ccc(Cl)cc32)CC1 [prochlorperazine]	–	–	–	–	–	prevent completely	bind	concentration at which significant cellular toxicity resulted [19]: > 20 µM; inhibition of Tat transactivation [20]: up to 6 fold
CCSc1ccc2c(c1)N(CCCN1CCN(C)CC1)c1ccccc1S2 [thiethylperazine]	–	–	–	–	–	did not	not found to have such binding activity	–
CN1CCN(CCCN2c3ccccc3Sc3ccc(C(F)(F)F)cc32)CC1 [trifluoperazine]	–	–	–	–	–	did not	not found to have such binding activity	inhibitory effect on the RNA of the ribosomal A-site ([1]; method not specified): inhibitory effect
